What was measured:
HTLV-1 [1] = test: Measurement of amount of virus (HTLV-1 P19 ELISA), MT2; format: cell-based, human T-cell leukemia virus type 1; details: 100 μM, Day 0, 2, 4, 7, compared among six NRTIs
Description: (§1) HTLV-1-producing cell lines, MT2 (transformant with HTLV-1, JCRB cell No: JCRB1210) and HUT102 (ATL-derived cell line, ATCC No: TIB-162), were used.
(§2) Each nucleoside analogue reverse transcriptase inhibitor was added to the medium for cells at a final concentration of 100 μM. Cells were seeded on a 96-well plate at a concentration of 1×10^4 cells/100 μL/well and cultured for 0 hour (Day 0), 48 hours (2 days), 96 hours (4 days) or 168 hours (7 days). At each time point, the medium was collected. The amount of virus contained in the medium collected at each time point (pg/mL) was measured by HTLV-1 P19 ELISA kit (manufactured by Zeptometrix).

HTLV-1 [2] = test: Measurement of amount of virus (HTLV-1 P19 ELISA), HUT102; format: cell-based, human T-cell leukemia virus type 1; details: 100 μM, Day 0, 2, 4, 7, compared among six NRTIs
Description: as §1, §2

[3] = test system: Kit225 (non-HTLV-1-infected cell line); test: Cellular proliferation (MTS assay), Kit225; format: cell-based; details: 100 μM
Description: (§3) Each nucleoside analogue reverse transcriptase inhibitor was added to the medium for cells at a final concentration of 100 μM. Cells were seeded on a 96-well plate at a concentration of 1×10^4 cells/100 μL/well and cultured for 4 hours (Day 0), 48 hours (Day 2) or 96 hours (Day 4). A medium added DMSO (solvent control) alone was used as a control. Cellular proliferation was examined by MTS assay. Specifically, after the cells were cultured for a predetermined time, a reagent for cellular proliferation test, Aqueous One Solution Cell Proliferation (trade name, manufactured by Promega), was added to the cells. Four hours later, absorbance at 490 nm was measured. The cellular proliferation was represented by a ratio relative to that of the control (solvent control) on Day 0 that was regarded as 1.
(§4) This example used non-HTLV-1-infected cell lines: Jurkat (cell line derived from human T-cell leukemia, ATCC No: TIB-152), Kit225 (cell line derived from chronic T-cell leukemia, established in the laboratory of the inventors, Blood. 1987 October; 70 (4): 1069-72.), H9 (cell line derived from cutaneous T-cell lymphoma, ATCC No: HTB-176) and SUDHL6 (cell line derived from diffuse B cell lymphoma).
(§5) The six types of nucleoside analogue reverse transcriptase inhibitors as used in Example 1 were used and cellular proliferation was examined in the same manner as in Example 1.

[4] = test system: SUDHL6 (non-HTLV-1-infected cell line); test: Cellular proliferation (MTS assay), SUDHL6; format: cell-based; details: 100 μM
Description: as §3, §4, §5

Rad51, γH2AX and PARP = test: Induction of DNA repair proteins (immunostaining); format: cell-based; details: ED40515 (−) versus Jurkat; 100 μM; 48 hours
Description: To an ATL cell line, ED40515 (−), or a non-ATL cell line, Jurkat, DMSO (solvent control) or abacavir was added at a concentration of 100 μM. The cells were cultured for 48 hours. The cells were fixed on slides, immuno-stained for Rad51, γH2AX and PARP, and observed by a fluorescent microscope. At least 70 cells per group were observed and the ratio of cells positive for each protein was calculated. Rad51, which is a homologue of a RecA protein of Escherichia coli, is involved in repair of double-strand DNA break. γH2AX, which is a phosphorylated histone protein, is involved in repair of double-strand DNA break. PARP, which is a poly(ADP-ribose) synthetase, is involved in repair of single-strand DNA break.

[5] = test system: non-ATL cell line, Jurkat; test: PARP inhibitor combination, cellular proliferation (MTS), Jurkat; format: cell-based, human; details: abacavir 10, 50 or 100 μM, 48 hours
Description: To an ATL cell line, ED40515 (−), or a non-ATL cell line, Jurkat, abacavir was added at a concentration of 0 μM (DMSO, was added instead of abacavir), 10 μM, 50 μM or 100 μM, and further a PARP inhibitor, olaparib, was added at a concentration of 0 μM (DMSO was added instead of olaparib), 1 μM, 10 μM, 100 μM or 1000 μM. The cells were cultured for 48 hours. MTS assay was performed using a reagent for cellular proliferation test, Aqueous One Solution Cell Proliferation (trade name, manufactured by Promega), in the same manner as in Example 1. The cellular proliferation was represented by a ratio relative to that of the control (solvent control) on Day 0 that was regarded as 1.

[6] = test system: ATL cell line, ED40515 (−); test: Cell-cycle analysis by flow cytometry (PI), ED40515 (−); format: cell-based; details: 10 μM or 100 μM, 24 hours
Description: (§6) To an ATL cell line, ED40515 (−), or a non-ATL cell line, Jurkat, DMSO (solvent control), adriamycin (ADR, positive control) or abacavir (10 μM or 100 μM) was added.

[7] = test system: non-ATL cell line, Jurkat; test: Cell-cycle analysis by flow cytometry (PI), Jurkat; format: cell-based, human; details: 10 μM or 100 μM, 24 hours
Description: as §6

[8] = test system: ATL cell line, ED40515 (−); test: Apoptosis (annexin V flow cytometry), ED40515 (−); format: cell-based; details: 100 μM, 24 or 48 hours
Description: DMSO (solvent control), adriamycin (ADR, positive control), or abacavir (100 μM) was added to an ATL cell line, ED40515 (−). The cells were cultured for 24 hours or 48 hours. After the culture of a predetermined time, the cells were stained with annexin V, and annexin V positive cells were measured by flow cytometry. The annexin V positive cells were determined as apoptotic cells.

[9] = test system: NCI_H522 (lung cancer cell line lacking TDP1 expression); test: Cellular proliferation (MTS) of lung cancer cell line NCI_H522; format: cell-based; details: 100, 200 or 300 μM, 72 hours
Description: Lung cancer cell lines lacking TDP1 expression, HOP—62 and NCI_H522, were used. NCI_H1299, a lung cancer cell line expressing TDP1, was used as a control. HOP—62 and NCI_H522 were provided by Dr. Pommier (DNA Repair. 2014 January; 13: 1-9).
Abacavir was added to each of the cell lines at a concentration of 0 μM (DMSO was added instead of abacavir), 100 μM, 200 μM or 300 μM. The cells were seeded on a 96-well plate at a concentration of 3×10^3 cells/100 μL/well and cultured for 4 hours or 72 hours. After the culture of a predetermined time, MTS assay was performed using a reagent for cellular proliferation, test, Aqueous One Solution Cell Proliferation (trade name, manufactured by Promega), in the same manner as in Example 1. The cellular proliferation was represented by a ratio relative to that of the control (solvent control) on Day 0 that was regarded as 100%.

Nc1nc(NC2CC2)c2ncn([C@H]3C=C[C@@H](CO)C3)c2n1 [abacavir, (−)-(1S,4R)-4-[2-amino-6-(cyclopropylamino)-9H-purin-9-yl]-2-cyclopentene-1-methanol]
viral production (amount of virus in the medium) (HTLV-1 [1]): most strongly suppressed
viral production (amount of virus in the medium) (HTLV-1 [2]): most strongly suppressed
cellular proliferation [3]: did not exhibit a suppressive effect
cellular proliferation [4]: did not exhibit a suppressive effect
ratio of PARP positive cells (Rad51, γH2AX and PARP): induces Rad51, γH2AX, and PARP specifically in an ATL cell line
ratio of Rad51 positive cells (Rad51, γH2AX and PARP): induces Rad51, γH2AX, and PARP specifically in an ATL cell line
ratio of γH2AX positive cells (Rad51, γH2AX and PARP): induces Rad51, γH2AX, and PARP specifically in an ATL cell line
cellular proliferation [5]: did not suppress cellular proliferation
cell cycle (ratio of cells in G0G1/S/G2 phase) [6]: induced the S/G2 arrest
cell cycle (ratio of cells in G0G1/S/G2 phase) [7]: did not affect the cell cycle
apoptosis (annexin V positive cells) [8]: induced apoptosis
cellular proliferation [9]: suppressed cellular proliferation of HOP—62 and NCI_H522 lacking TDP1 expression in a concentration dependent manner

From patent US20160000796A1, “PHARMACEUTICAL COMPOSITION FOR USE IN PREVENTION OR TREATMENT OF CANCER” (priority 2013, published 2016)
